The values below come from publication PMC6669322, “Small Molecule Binding to Alzheimer Risk Factor CD33 Promotes Aβ Phagocytosis” (iScience, 2019).

SMILES strings stand for the structures.

The test system of assay [1] is differentiated THP-1 cells. Put plainly: THP-1 phagocytosis assay (pHrodo E. coli BioParticles), wild-type cells. Type of assay: cell-based, human. The settings on record: co-treatment, all treatment groups, in words. The source says:
(§1) Having shown that P22 binds specifically to the sialic acid-binding site of this domain we now have a chemical tool to answer the question of whether the sialic acid-binding site is the appropriate target for small molecule ligands that might promote Aβ uptake. Siglecs preferentially recognize multivalent presentation of their ligands ([Rillahan et al., 2014], [Büll et al., 2016]), and for this reason we conjugated the biotinylated form of P22 to microparticles labeled with both FITC and streptavidin (P22 microparticles) (see Transparent Methods). More than 60% CD33-transfected BV2 cells were positive for P22 microparticles compared with only 30% cells that were only incubated with control particles (unconjugated to P22) (Figure 4A). […]
(§2) Figure 4 Effect of P22 on Phagocytosis The cells were treated with P22 conjugated to microparticles labeled with both streptavidin and fluorescein isothiocyanate (FITC), or with microparticles without P22 conjugated as control. […] (C) Quantification of phagocytic differentiated human THP-1 cells after incubation with P22 monomer, P22 conjugated microparticles, or microparticles without P22 conjugation. […]
THP-1 cells (control and CD33KO) were differentiated in growth media (RPMI 1640, 10% FCS) supplemented with 100 ng/mL PMA for 3 days. […] Differentiated cells were then lifted, counted and 75,000 cells/well were plated in a 96 well plate. […]

The subject of assay [2] is human CD33-transfected BV2 cells. Description: Aβ42 phagocytosis assay (Aβ42 pHrodo uptake). Type of assay: cell-based, murine. The settings on record: cells pre-treated with millimolar concentration of the ligand, in words.
From the text: as §1, with “4A). Although some P22 microparticles also bind to non-transfected cells, the difference remains significant for the cells transfected with CD33. This led us to believe that the compound bound preferentially to CD33 (Figure 4A).” for “4A).”
as §2

Assay [3] deals with CD33. The arrangement: method as in Blixt et al., 2003. Conditions: order of magnitude in words; ref Blixt et al., 2003; cited from earlier work.

As to `C=C1[C@@H](C)[C@H]2[C@H](Cc3ccccc3)NC(=O)[C@]23[C@H](OC(C)=O)/C=C/[C@@](C)(O)C(=O)[C@@H](C)C/C=C/[C@H]3[C@@H]1O` [cytochalasin D], in assay [1], the “effect of co-treatment on phagocytosis” value is given as “blocked phagocytosis”. Consider `CC(=O)N[C@H]1[C@H]([C@H](O)[C@H](O)CO)O[C@@](O[C@H]2[C@@H](O)[C@@H](CO)O[C@@H](O[C@H]3[C@H](O)[C@@H](O)C(O)O[C@@H]3CO)[C@@H]2O)(C(=O)O)C[C@@H]1O` (stereo partly drawn) [3′-sialyllactose], for which the effect on phagocytosis result in assay [2] is recorded as “no difference”. In addition, the “affinity for CD33” value in assay [3] is on record as “millimolar”.
